Assay results reported in patent US9616066B2, “Therapy for constipation” (priority 2012, dated 2017).

How the values were obtained:
[1] = tested on: irritable bowel syndrome, chronic abdominal pain; assay: Case Example 10: orlistat in person with irritable bowel syndrome; assay type: in vivo, human; conditions: over 4 to 6 weeks
From the text: This case involves a non-overweight person with a history of irritable bowel syndrome. The person reported chronic abdominal pain and bloating, minor occasional constipation, minor occasional diarrhea, and lower back pain for the past five years. They were otherwise well. They had 2 colonoscopies, and an ultrasound of the abdomen and pelvis, all of which were normal. They were also taking an oral dose of B12. They were on other medications as well. […] There was no rebound or rigidity. They had no enlargement of any organs. They had tenderness globally around their abdomen, tightness of the iliopsoas bilaterally and oblique muscles. Their bowels were tender, and they were chronically uncomfortable and in pain. They were treated with orlistat (120 mg, once or twice a day as needed with food). […] They felt generally better, and was able to stop taking vitamin B12 because the absorption of […] B12 improved with their improved bowel function. Thus, orlistat was useful to treat IBD.

[2] = tested on: constipation related to dehydration, post-gastroenteritis; assay: Case Example 4: orlistat for constipation related to post-infection and dehydration; assay type: in vivo, human
Experimental: A person travelled to Mexico and while there developed acute gastroenteritis. The patient was of average weight (not overweight). They began experiencing vomiting and diarrhea while there. They became dehydrated and eventually was transferred to their home in Canada. The virus had cleared one day after arriving back in Canada. They began eating and drinking but had developed constipation related to post-infection and dehydration. They were given orlistat (120 mg orally once daily with food) by their doctor for one week and this resolved their constipation within 24 hours. […] The improvement was such that after seven days that when they stopped the medication (orlistat), they were able to return to their normal diet.

[3] = tested on: fibromyalgia, irritable bowel syndrome, chronic abdominal pain; assay: Case Example 9: orlistat in fibromyalgia patient with irritable bowel syndrome; assay type: in vivo, human
From the text: This case involves a person with a 15 year history of fibromyalgia. The person reported chronic pain involving the neck, lower back, migraine headaches, abdominal bloating, and constipation with occasional diarrhea. They had been diagnosed with fibromyalgia about 10 years prior, and had chronic abdominal pain, bloating and a formal diagnosis of irritable bowel syndrome. […] Serology, abdominal x-rays, ultrasound of the abdomen and pelvis, were normal. […] There were no masses or any signs of acute surgical abdomen. They were taking Lyrica™ 75 mg twice a day, Flexeril™ 10 mg twice a day as needed, Percocet™ 2 twice a day as needed, and Celebrex™ 200 mg once a day. They were given orlistat (120 mg, twice a day as needed to take with food), and they noted that their constipation resolved, their bloating resolved, their occasional diarrhea resolved, and their abdominal pain resolved.

[4] = tested on: chronic constipation after bowel resection/colostomy; assay: Case Example 7: orlistat for constipation after partial bowel resection with colostomy; assay type: in vivo, human
From the text: person suffering from bowel cancer was given a partial bowel resection with a colostomy and bag. They complained that since their bowel surgery they suffered chronic constipation and hard stools. […] It would sometimes be so hard it could injure and cause bleeding to the ostomy site.

[5] = tested on: opiate-related constipation
[6] = tested on: constipation related to deconditioning/bedridden; assay: Case Example 8: orlistat for constipation related to being bedridden; assay type: in vivo, human
Experimental: His stools and bowel function gradually became more regular allowing for a reduction of dose of the orlistat (to one 120 mg oral pill twice per day with food) as maintenance.

[7] = tested on: paralytic bowel, chronic constipation; assay: Case Example 5: orlistat for paralytic bowel after spinal cord transection; assay type: in vivo, human; conditions: orlistat 120 mg three times a day with food
From the text: A person of average weight (not overweight) suffered a thoracic spinal injury with transection of the spinal cord resulting in complete paralysis below the third thoracic vertebrae. They went on to develop full paralysis of their muscles below T-3 including the skeletal muscles and smooth muscles of the gut. They developed a paralytic bowel contributing to chronic constipation with overflow and diarrhea. They required regular manual disempaction and Fleet enemas to manage their chronic constipation. The patient was given orlistat (120 mg one pill three times a day with food) by their doctor.

[8] = tested on: irritable bowel syndrome and heartburn; assay: Case Example 11: orlistat in person with irritable bowel syndrome and heartburn; assay type: in vivo, human; conditions: orlistat 120 mg, one per day on average
From the text: This example relates to a person with a 20 year history of irritable bowel syndrome and heartburn. The person reported chronic abdominal pain with bloating, occasional constipation or diarrhea, and epigastric discomfort for over 20 years. They had four colonoscopies over that period of time, and 2 endoscopies of the stomach. […] They also had ultrasounds of the abdomen and pelvis which were normal. They had 2 chest x-rays and an MRI of the abdomen, each of which were normal. They were taking Losec™ for their heartburn which was controlled. They were also taking low dose Atenolol™ for their blood pressure as they had developed some minor hypertension. They were otherwise well. […] There were no masses, rebound or rigidity. There were no organs that were tender or enlarged. They complained of persistent heartburn despite being on Losec™ and abdominal pain. They were treated with orlistat (120 mg, twice a day each with a meal to be reduced or increased as required up to three per day). They reported that they only required one per day on average and occasionally a second tablet. […] They became more flexible in their abdomen and lower back. They were more comfortable in their walking. Thus, orlistat was useful to treat IBD.

[9] = tested on: constipation related to menstrual cycle; assay: Case Example 6: cetilistat for constipation related to menstrual cycle; assay type: in vivo, human; conditions: cetilistat 60 mg oral once a day with food, as needed
From the text: This is a case of a person who complained of recurring constipation related to their menstrual cycle. They noticed that a few days before the onset of their menstrual cycle and for the week of their menstrual cycle they develop constipation that aggravates their bloating and abdominal pain. They are not overweight. They have tried over-the-counter laxatives and tried some standard prescription laxatives that caused them to feel more bloated. […] Their doctor gave them a prescription of cetilistat (one 60 mg oral pill once a day with food) to be taken one to three days before the onset of their menstruation. In the fourth week of their period, they noticed normalization of their bowel movement and required to take the cetilistat only as needed. Often they only need to take it three times during their menstrual cycle. […] Typically, they required the cetilistat 3-7 days per cycle. […] Further, the cetilistat may be used as needed as a medication for constipation.

[10] = tested on: lazy bowel and age-related constipation; assay: Case Example 3: cetilistat for constipation in person (non-opiate medications, dehydration, lazy bowel); assay type: in vivo, human; conditions: cetilistat 60 mg twice daily
From the text: Person living in a nursing home with mild dementia complained of painful bowel movements causing an anal fissure with bleeding in their rectum. The cause of their constipation was deemed to be due to a combination of non-opiate medications, dehydration, and a lazy bowel. The patient also complained of abdominal distention and some intermittent abdominal discomfort. The patient was not overweight. […] They had abdominal pain with conventional bowel stimulants. […] The cetilistat resolved the constipation in an acute case and allowed for long-term recovery from a constipation-related complication. Further, it was effective in the treatment of lazy bowel and age-related constipation.

[11] = tested on: non-opiate medication-related constipation; assay: Case Example 2: cetilistat for constipation related to amitriptyline (non-opiate medication); assay type: in vivo, human
Experimental: A person with fibromyalgia being treated with the tricyclic antidepressant, amitriptyline, suffered from a global pain disorder requiring pain management. They were of average weight, not over-weight. They were treated with amitriptyline that is a known therapeutic agent for mild to moderate fibromyalgia. This tricyclic antidepressant is also known for causing dry mouth, blurry vision and constipation.

[12] = orlistat 120 mg once or twice a day
[13] = orlistat 120 mg twice a day as needed with food

CCCCCCCCCCC[C@@H](C[C@@H]1OC(=O)[C@H]1CCCCCC)OC(=O)[C@H](CC(C)C)NC=O [orlistat]
bloating ([1]; orlistat 120 mg once or twice a day as needed with food): reduced bloating | abdominal pain [1, 12]: resolution of their abdominal pain | diarrhea [1, 12]: no episodes of diarrhea | muscles of abdomen and lower back [1, 12]: relaxation of the muscles of their abdomen and lower back | straining with bowel movements [1, 12]: less straining with bowel movements | bowel movements after cessation ([2]; after stopping orlistat at seven days): continue to be normal | bowel movements on treatment ([2]; orlistat 120 mg once daily): normal and regular | time to resolution of constipation ([2]; orlistat 120 mg orally once daily with food for one week): ≤ 24 h | long-term outcome ([3]; combined medication for over two years): sustained good results | abdominal pain [3, 13]: resolved | bloating [3, 13]: resolved | occasional diarrhea [3, 13]: resolved | overall fibromyalgia [3, 13]: improvement in their overall fibromyalgia | constipation ([3]; orlistat 120 mg twice a day as needed with food, with Lyrica, Flexeril, Percocet, Celebrex): resolved | abdominal pain ([4]; orlistat 120 mg once daily): no longer had abdominal pain | bloating ([4]; orlistat 120 mg once daily): greatly improved | stool consistency ([4]; orlistat 120 mg once daily): softened their stool | average bowel movement frequency ([4]; orlistat 120 mg orally once daily with food): once a day | time to noticed improvement of constipation ([5]; orlistat 120 mg BID orally with food, patient on MS Contin 60 mg BID): ≤ 24 h | bowel movements within one week ([5]; orlistat 120 mg BID orally with food, within one week): daily bowel movements | bowel movements over one year of treatment ([5]; orlistat 120 mg BID, one year): good well-formed bowel movements most days | side effects reported ([5]; orlistat 120 mg BID, one year): no major side effects | stool and bowel movements ([6]; orlistat 120 mg once a day increased to three times per day with food, then twice per day as maintenance): softening of their stool, and the formation of regular bowel movements daily | need for Fleet enemas and disempaction ([6]; orlistat, maintenance 120 mg twice per day): cessation of the Fleet enemas and the disempaction | bowel formation [7]: long-term improvement in bowel formation | bowel movements [7]: soft and allowing for more regular, daily movements | need for enemas and manual disempaction [7]: significant reduction of therapeutic enemas and manual disempaction | bloating [8]: great improvement of their bloating | abdominal pain and heartburn ([8]; over 4 to 6 weeks): great improvement of their abdominal pain and heartburn

CCCCCCCCCCCCCCCCOc1nc2ccc(C)cc2c(=O)o1 [cetilistat]
relief of constipation on days of use [9]: good relief of their constipation with regular, soft bowel movements | abdominal bloating and abdominal pain [10]: resolved | bowel movement regularity [10]: regular bowel movements daily | quality of the bowel movement [10]: painless and soft | anal fissure and rectal bleeding ([10]; over two weeks): the anal fissure had healed and the bleeding had stopped | side effects reported ([11]; cetilistat 60 mg once per day, one year): no major side effects | time to bowel movement ([11]; cetilistat 60 mg orally once per day with food, patient on amitriptyline): ≤ 24 h | bowel movements on continued daily treatment ([11]; cetilistat one pill per day): regular bowel movements daily | outcome after a year of amitriptyline and cetilistat ([11]; one year): good success with treatment of fibromyalgia and daily bowel movements
